One assay concerns the target T1, c-kit (Homo sapiens, UniProt P10721).
T1 construct: MO7e (human megakaryocytic leukemia cell line) which had been arrested for 20 hr; endogenous in cells; host or cells: MO7e human megakaryocytic leukemia cell line
As to the kind of experiment: Inhibitory activity against c-kit autophosphorylation (MO7e cells, h-SCF). Format: cell-based. As to conditions: for inhibition at 1 µM: Mo7e, figure in parentheses in −( ), at 1000 nM; for IC50: MO7e cells, h-SCF stimulation, read-out: c-kit IC50. The gist of the method: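 MO7e human megakaryocytic leukemia cells, arrested 20 hr, treated with compound 1 hr, then stimulated with 50 ng/ml h-SCF for 5 min and lysed. Lysates captured on immobilized anti-phosphotyrosine antibody, detected with anti-c-kit primary and HRP secondary antibody; absorbance at 450 nm.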

A further assay deals with T2, PDGF-Ra (Homo sapiens, UniProt P16234).
T2 construct: host or cells: G-292 human osteosarcoma cells
T2 sequence (P16234 24-1089): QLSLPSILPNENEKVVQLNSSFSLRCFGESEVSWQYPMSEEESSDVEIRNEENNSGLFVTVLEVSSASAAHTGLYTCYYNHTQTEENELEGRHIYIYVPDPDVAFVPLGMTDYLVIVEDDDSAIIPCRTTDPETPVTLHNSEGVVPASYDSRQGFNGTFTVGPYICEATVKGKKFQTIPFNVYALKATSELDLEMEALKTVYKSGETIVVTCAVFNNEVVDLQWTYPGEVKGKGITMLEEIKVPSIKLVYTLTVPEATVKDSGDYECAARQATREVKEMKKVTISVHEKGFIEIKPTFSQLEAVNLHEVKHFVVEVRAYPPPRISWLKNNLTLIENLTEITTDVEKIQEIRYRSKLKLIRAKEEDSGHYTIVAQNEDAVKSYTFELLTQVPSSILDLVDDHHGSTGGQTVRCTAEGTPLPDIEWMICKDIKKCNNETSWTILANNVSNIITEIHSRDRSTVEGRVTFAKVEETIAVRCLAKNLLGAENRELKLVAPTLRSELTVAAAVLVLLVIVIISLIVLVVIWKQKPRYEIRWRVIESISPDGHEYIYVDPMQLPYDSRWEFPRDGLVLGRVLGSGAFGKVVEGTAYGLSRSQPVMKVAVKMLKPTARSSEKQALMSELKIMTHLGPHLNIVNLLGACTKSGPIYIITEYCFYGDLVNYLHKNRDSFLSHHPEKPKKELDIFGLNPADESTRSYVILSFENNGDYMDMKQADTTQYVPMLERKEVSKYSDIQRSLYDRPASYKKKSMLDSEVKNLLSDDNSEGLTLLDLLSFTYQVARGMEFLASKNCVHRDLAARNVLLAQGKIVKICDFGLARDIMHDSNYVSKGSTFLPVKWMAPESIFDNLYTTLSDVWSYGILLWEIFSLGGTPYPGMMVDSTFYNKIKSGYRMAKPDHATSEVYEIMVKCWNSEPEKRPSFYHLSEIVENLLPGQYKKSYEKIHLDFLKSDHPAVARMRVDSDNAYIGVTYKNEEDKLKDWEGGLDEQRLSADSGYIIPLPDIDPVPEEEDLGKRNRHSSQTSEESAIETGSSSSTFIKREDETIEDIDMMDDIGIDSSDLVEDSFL
As to the kind of experiment: Inhibitory activity against PDGF-Ra phosphorylation by PDGF-AA stimulation using G292. It is filed as cell-based. The note with it: for IC50: > means inhibition at indicated concentration not more than 50%, < and << not less than 50%, read-out: PDGF (E) IC50; for inhibition at 0.1 µM: G292, figure in parentheses in >100( ), at 100 nM, read-out: PDGF (E) inhibition (%) at 100 nM. The essentials:
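Phosphorylated PDGF-Ra was measured colorimetrically (450 nm) after tyrosine-phosphorylated proteins from G-292 lysates were bound to PY-20-coated wells and detected with anti-PDGF-Ra antibody. Compound preincubation lasted 1 hr, followed by 50 ng/ml PDGF-AA for 5 min.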

T1 sequence (P10721 26-976): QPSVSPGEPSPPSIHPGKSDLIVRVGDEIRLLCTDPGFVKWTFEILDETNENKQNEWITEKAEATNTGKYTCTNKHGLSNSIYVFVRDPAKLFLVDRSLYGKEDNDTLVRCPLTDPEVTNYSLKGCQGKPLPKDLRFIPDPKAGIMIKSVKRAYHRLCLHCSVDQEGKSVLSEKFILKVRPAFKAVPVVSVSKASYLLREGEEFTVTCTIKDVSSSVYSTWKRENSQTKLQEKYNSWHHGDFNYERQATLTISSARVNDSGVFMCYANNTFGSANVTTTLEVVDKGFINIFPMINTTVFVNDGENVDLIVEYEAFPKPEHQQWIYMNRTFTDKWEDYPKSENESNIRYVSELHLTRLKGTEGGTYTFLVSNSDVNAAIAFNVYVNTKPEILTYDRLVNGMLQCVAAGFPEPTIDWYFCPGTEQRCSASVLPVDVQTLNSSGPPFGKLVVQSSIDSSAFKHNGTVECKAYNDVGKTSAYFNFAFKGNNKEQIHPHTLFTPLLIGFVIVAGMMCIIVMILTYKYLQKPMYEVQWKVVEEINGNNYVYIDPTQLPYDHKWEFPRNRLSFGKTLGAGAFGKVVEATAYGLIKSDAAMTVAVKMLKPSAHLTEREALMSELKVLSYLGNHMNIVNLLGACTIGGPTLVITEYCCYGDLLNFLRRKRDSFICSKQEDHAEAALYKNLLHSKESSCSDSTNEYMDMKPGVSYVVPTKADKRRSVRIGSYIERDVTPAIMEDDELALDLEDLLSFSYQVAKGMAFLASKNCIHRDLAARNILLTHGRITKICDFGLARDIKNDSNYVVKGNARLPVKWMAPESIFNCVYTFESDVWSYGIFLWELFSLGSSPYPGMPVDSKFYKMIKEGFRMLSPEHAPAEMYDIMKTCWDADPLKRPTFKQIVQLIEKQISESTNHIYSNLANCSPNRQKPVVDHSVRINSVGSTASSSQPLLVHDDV

Usually inhibition stands for the relative decrease from the control value, in per cent. What is called IC50 is the concentration that gives 50% inhibition. As for `COc1cc2nccc(Oc3cc(C)c(NCCCOc4ccccc4C)cc3C)c2cc1OC` [Example 889, N-{4-[(6,7-Dimethoxy-4-quinolyl)oxy]-2,5-dimethylphenyl}-N-[3-(2-methylphenoxy)propyl]amine], the inhibition at 1 µM on c-kit worked out at 28%. Besides, on PDGF-Ra, the IC50 is > 100 nM and the inhibition at 0.1 µM came to 30%.
As to `COc1cc2nccc(Oc3ccc(NCCCOc4ccccc4C)c(C)c3C)c2cc1OC` [Example 890, N-{4-[(6,7-Dimethoxy-4-quinolyl)oxy]-2,3-dimethylphenyl}-N-[3-(2-methylphenoxy)propyl]amine], the inhibition at 1 µM on c-kit turned out to be 39%. For the same compound, the concentration for half-maximal inhibition (IC50) on PDGF-Ra worked out at 95 nM.
Consider `COc1cc2nccc(Oc3ccc(NCCCOc4ccccc4Cl)cc3)c2cc1OC` [Example 891, N-[3-(2-Chlorophenoxy)propyl]-N-{4-[(6,7-dimethoxy-4-quinolyl)oxy]phenyl}amine], for which the IC50 on c-kit was determined as 280 nM; on PDGF-Ra it was 7 nM.
Take `COc1cc2nccc(Oc3cc(C)c(NCCCOc4ccccc4Cl)cc3C)c2cc1OC` [Example 892, N-[3-(2-Chlorophenoxy)propyl]-N-{4-[(6,7-dimethoxy-4-quinolyl)oxy]-2,5-dimethylphenyl}amine]: the inhibition at 1 µM at c-kit stood at 30%. Further, on PDGF-Ra, the IC50 is > 100 nM and the inhibition at 0.1 µM worked out at 25%.
`COc1cc2nccc(Oc3ccc(NCCCOc4ccccc4Cl)c(C)c3C)c2cc1OC` [Example 893]: the IC50 was determined as 640 nM on c-kit and 52 nM at PDGF-Ra.
As to `COc1cc2nccc(Oc3ccc(NCCOc4c(C)cccc4C)c(C)c3C)c2cc1OC` [Example 894, N-{4-[(6,7-Dimethoxy-4-quinolyl)oxy]-2,3-dimethylphenyl}-N-[2-(2,6-dimethylphenoxy)ethyl]amine], the inhibition at 1 µM on c-kit worked out at 23%. In addition, on PDGF-Ra, the IC50 was > 100 nM and the inhibition at 0.1 µM worked out at 49%.
The matching figures for `COc1cc2nccc(Oc3cc(C)c(NCCOc4c(C)cccc4C)cc3C)c2cc1OC` [Example 895, N-{4-[(6,7-Dimethoxy-4-quinolyl)oxy]-2,5-dimethylphenyl}-N-[2-(2,6-dimethylphenoxy)ethyl]amine]: 20%, > 100 nM and 33%.
For `COc1cc2nccc(Oc3cc(C)c(NCCOc4c(OC)cccc4OC)cc3C)c2cc1OC` [Example 896, N-[2-(2,6-Dimethoxyphenoxy)ethyl]-N-{4-[(6,7-dimethoxy-4-quinolyl)oxy]-2,5-dimethylphenyl}amine], the inhibition at 1 µM on c-kit stood at 31%. Moreover, the IC50 at PDGF-Ra was found to be 96 nM.
Taken in the same sequence, the figures for `COc1cc2nccc(Oc3ccc(NC(=S)NC(=O)c4ccccc4Cl)c(F)c3)c2cc1OC` [Example 905, N-(2-Chlorobenzoyl)-N′-{4-[(6,7-dimethoxy-4-quinolyl)oxy]-2-fluorophenyl}thiourea] were 40% and 5 nM.
`COc1cc2nccc(Oc3ccc(NC(=S)NC(=O)c4ccccc4I)c(F)c3)c2cc1OC` [Example 908, N-{4-[(6,7-Dimethoxy-4-quinolyl)oxy]-2-fluorophenyl}-N′-(2-iodobenzoyl)thiourea]: the values for the IC50 at c-kit and at PDGF-Ra were 757 nM and 9 nM, respectively.
The matching figures for `COc1cc2nccc(Oc3ccc(NC(=S)NC(=O)c4ccccc4I)cc3F)c2cc1OC` [Example 915, N-{4-[(6,7-Dimethoxy-4-quinolyl)oxy]-3-fluorophenyl}-N′-(2-iodobenzoyl)thiourea]: 240 nM and 9 nM.
Taken in the same sequence, the figures for `COc1cc2nccc(Oc3ccc(NC(=S)NC(=O)c4ccccc4C(F)(F)F)cc3F)c2cc1OC` [Example 917, N-{4-[(6,7-Dimethoxy-4-quinolyl)oxy]-3-fluorophenyl}-N′-[2-(trifluoromethyl)benzoyl]thiourea] were 546 nM and 132 nM.
As to `COc1cc2nccc(Oc3ccc(NC(=S)NC(=O)c4ccccc4C)c([N+](=O)[O-])c3)c2cc1OC` [Example 925, N-{4-[(6,7-Dimethoxy-4-quinolyl)oxy]-2-nitrophenyl}-N′-(2-methylbenzoyl)thiourea], the IC50 at c-kit is 430 nM; on PDGF-Ra, 35 nM.
The matching figures for `COc1cc2ncnc(Oc3ccc(NC(=S)NC(=O)c4ccccc4C)cc3)c2cc1OC` [Example 927, N-{4-[(6,7-Dimethoxy-4-quinazolinyl)oxy]phenyl}-N′-(2-methylbenzoyl)thiourea]: 623 nM and 5 nM.
Taken in the same sequence, the figures for `COc1cc2nccc(Oc3ccc(NC(=S)NC(=O)c4cccc(C)c4)cc3)c2cc1OC` [Example 930, N-{4-[(6,7-Dimethoxy-4-quinolyl)oxy]phenyl}-N′-(3-methylbenzoyl)thiourea] were 184 nM and < 10 nM.
The matching figures for `COc1cc2nccc(Oc3ccc(NC(=S)NC(=O)c4ccc(C)cc4)cc3)c2cc1OC` [Example 959, N-{4-[(6,7-Dimethoxy-4-quinolyl)oxy]phenyl}-N′-(4-methylbenzoyl)thiourea]: 300 nM and < 10 nM.
With `COc1cc2nccc(Oc3ccc(NC(=S)NC(=O)c4ccc(I)cc4)c(F)c3)c2cc1OC` [Example 967, N-{4-[(6,7-Dimethoxy-4-quinolyl)oxy]-2-fluorophenyl}-N′-(4-iodobenzoyl)thiourea], the inhibition at 1 µM at c-kit stood at 15%. Further, at PDGF-Ra, the IC50 came to 20 nM.
Regarding `COc1cc2nccc(Oc3ccc(NC(=S)NC(=O)c4ccc5c(c4)OCO5)cc3)c2cc1OC` [Example 989, N-(1,3-Benzodioxol-5-ylcarbonyl)-N′-{4-[(6,7-dimethoxy-4-quinolyl)oxy]phenyl}thiourea], the results for the IC50 at c-kit and at PDGF-Ra were 425 nM and 14 nM, respectively.
As for `COc1cc2nccc(Oc3ccc(NC(=S)NC(=O)c4ccc(-c5ccccc5)cc4)cc3F)c2cc1OC` [Example 991, N-{4-[(6,7-Dimethoxy-4-quinolyl)oxy]-3-fluorophenyl}-N′-(4-phenylbenzoyl)thiourea], the inhibition at 1 µM on c-kit was 20%. In addition, on PDGF-Ra, the IC50 turned out to be 19 nM.
The matching figures for `CCCc1ccc(C(=O)NC(=S)Nc2ccc(Oc3ccnc4cc(OC)c(OC)cc34)cc2F)cc1` [Example 994, N-{4-[(6,7-Dimethoxy-4-quinolyl)oxy]-2-fluorophenyl}-N′-(4-propylbenzoyl)thiourea]: 47% and 27 nM.
Taken in the same sequence, the figures for `CCCCc1ccc(C(=O)NC(=S)Nc2ccc(Oc3ccnc4cc(OC)c(OC)cc34)cc2F)cc1` [Example 995, N-(4-Butylbenzoyl)-N′-{4-[(6,7-dimethoxy-4-quinolyl)oxy]-2-fluorophenyl}thiourea] were 23% and 87 nM.
The matching figures for `COc1cc2nccc(Oc3ccc(NC(=S)NC(=O)c4ccc(CCl)cc4)c(F)c3)c2cc1OC` [Example 996, N-[4-(Chloromethyl)benzoyl]-N′-{4-[(6,7-dimethoxy-4-quinolyl)oxy]-2-fluorophenyl}thiourea]: 27% and 53 nM.
In the case of `CCc1ccc(C(=O)NC(=S)Nc2ccc(Oc3ccnc4cc(OC)c(OC)cc34)c(F)c2)cc1` [Example 997, N-{4-[(6,7-Dimethoxy-4-quinolyl)oxy]-3-fluorophenyl}-N′-(4-ethylbenzoyl)thiourea], the IC50 turned out to be 264 nM at c-kit and 9 nM at PDGF-Ra.
Taken in the same sequence, the figures for `CCCc1ccc(C(=O)NC(=S)Nc2ccc(Oc3ccnc4cc(OC)c(OC)cc34)c(F)c2)cc1` [Example 998, N-{4-[(6,7-Dimethoxy-4-quinolyl)oxy]-3-fluorophenyl}-N′-(4-propylbenzoyl)thiourea] were 591 nM and 25 nM.
Turning to `CCCCc1ccc(C(=O)NC(=S)Nc2ccc(Oc3ccnc4cc(OC)c(OC)cc34)c(F)c2)cc1` [Example 999, N-(4-Butylbenzoyl)-N′-{4-[(6,7-dimethoxy-4-quinolyl)oxy]-3-fluorophenyl}thiourea], the inhibition at 1 µM on c-kit was 45%. Further, the IC50 at PDGF-Ra is 29 nM.
With `COc1cc2nccc(Oc3ccc(NC(=S)NC(=O)c4ccc(CCl)cc4)cc3F)c2cc1OC` [Example 1000, N-[4-(Chloromethyl)benzoyl]-N′-{4-[(6,7-dimethoxy-4-quinolyl)oxy]-3-fluorophenyl}thiourea], the values for the IC50 on c-kit and at PDGF-Ra were 771 nM and 3 nM, respectively.
In the case of `CCCc1ccc(C(=O)NC(=S)Nc2ccc(Oc3ccnc4cc(OC)c(OC)cc34)c(Cl)c2)cc1` [Example 1001, N-{3-Chloro-4-[(6,7-dimethoxy-4-quinolyl)oxy]phenyl}-N′-(4-propylbenzoyl)thiourea], the inhibition at 1 µM on c-kit stood at 34%. At PDGF-Ra, the IC50 was < 10 nM.
Turning to `COc1cc2ncnc(Oc3ccc(NC(=S)NC(=O)c4ccc(CCl)cc4)cc3)c2cc1OC` [Example 1002, N-[4-(Chloromethyl)benzoyl]-N′-{4-[(6,7-dimethoxy-4-quinazolinyl)oxy]phenyl}thiourea], the inhibition at 1 µM at c-kit came out at 16%. At PDGF-Ra, the IC50 is < 10 nM.
Regarding `COc1cc2nccc(Oc3ccc(NC(=S)NC(=O)c4ccc(C)cc4C)cc3)c2cc1OC` [Example 1003, N-{4-[(6,7-Dimethoxy-4-quinolyl)oxy]phenyl}-N′-(2,4-dimethylbenzoyl)thiourea], the figures for the IC50 at c-kit and at PDGF-Ra were 628 nM and 24 nM, respectively.
The matching figures for `COc1cc2nccc(Oc3ccc(NC(=S)NC(=O)c4cc(C)ccc4C)cc3)c2cc1OC` [Example 1004, N-{4-[(6,7-Dimethoxy-4-quinolyl)oxy]phenyl}-N′-(2,5-dimethylbenzoyl)thiourea]: 877 nM and 10 nM.
